Measurements reported in patent US10544137B2, “PI3K inhibitor, and pharmaceutically acceptable salt, polycrystalline form, and application thereof” (SHANGHAI HAIYAN PHARMACEUTICAL TECHNOLOGY CO., LTD., priority 2016, dated 2020).
Like-named read-outs stand apart in the source and are kept apart here.

How the values were obtained:
[1] = test system: NIH-3T3 cells; test: Cytotoxicity in normal cell line NIH-3T3 (MTT assay); type: cell-based
Procedure: The MTT assay procedure and steps were carried out as well known to those skilled in the art, and all the reagents used in the methods were commercially available.
The cells in logarithmic growth phase were digested with 0.25% EDTA trypsin (Gibco, 25200-056) and resuspended in fresh medium. 90 μL of the cell suspension was inoculated into a 96-well cell culture plate (BD Faclon 353072) with a suitable cell density and cultured at 37° C. under 5% CO2. After the cells adhered, 10 μL of the test compound at different concentrations (0.0046-10 μM, 8 concentration points) was added and incubated for another 72 h. 10 μL of MTT (5 mg/mL PBS solution) (Sigma, M5655) was added to react for 4 h. The absorbance at 492 nm was measured by using Thermo Scientific Multiskan MK3 microplate reader and IC50 was calculated using XLFIT 5.0 software (UK IDBS).

[2] = Metabolism stability assay in liver microsomes; type: in vitro ADME, mouse; conditions: liver microsomal metabolism in mice
Procedure: Buffer A: 1 L solution of 100 mM potassium dihydrogen phosphate containing 1 mM EDTA (Sigma, V900157-100G) was prepared. Buffer B: 1 L solution of 100 mM dipotassium hydrogen phosphate containing 1 mM EDTA was prepared. Buffer C: 700 mL of buffer B was taken out and titrated with buffer A to pH 7.4.
2.1 10 μl of 10 mM compound to be tested and 10 μl of 10 mM ketanserin were taken out and 190 μl of pure acetonitrile was added to each of them to prepare 500 μM compound to be tested and ketanserin, respectively.
2.2 20 μl (20 mg/mL) of liver microsomes (XENOTECH, H0610) stock solution was added to 513.4 μl of buffer C on wet ice. 0.75 mg/mL liver microsomal solution was obtained.
2.3 1.5 μl of each of the above-mentioned compound to be tested and ketanserin solution was added to 498.5 μl of liver microsomal solution (0.7 5 mg/mL) respectively on wet ice. 1.5 μM mixed solution of compound to be tested and 1.5 μM mixed solution of ketanserin were obtained. […]
2.10 The sample was diluted with pure water in accordance with the ratio of 1:1 and detected by LC/MS. […]
Wherein, the K value and the proportional factor were calculated by those skilled in the art according to the methods described in the prior art and contained in the instructions of the liver microsome product.

[3] = biological target: T1, PI3K-α (p110α/p85α) (Homo sapiens, UniProt P42336); test: Determination of PI3K kinase activity (ADP Transcreener fluorescence polarization), PI3K-α; type: biochemical; conditions: compared with BKM-120
T1 construct: purchased Invitrogen PV4788
T1 sequence (P42336 whole entry): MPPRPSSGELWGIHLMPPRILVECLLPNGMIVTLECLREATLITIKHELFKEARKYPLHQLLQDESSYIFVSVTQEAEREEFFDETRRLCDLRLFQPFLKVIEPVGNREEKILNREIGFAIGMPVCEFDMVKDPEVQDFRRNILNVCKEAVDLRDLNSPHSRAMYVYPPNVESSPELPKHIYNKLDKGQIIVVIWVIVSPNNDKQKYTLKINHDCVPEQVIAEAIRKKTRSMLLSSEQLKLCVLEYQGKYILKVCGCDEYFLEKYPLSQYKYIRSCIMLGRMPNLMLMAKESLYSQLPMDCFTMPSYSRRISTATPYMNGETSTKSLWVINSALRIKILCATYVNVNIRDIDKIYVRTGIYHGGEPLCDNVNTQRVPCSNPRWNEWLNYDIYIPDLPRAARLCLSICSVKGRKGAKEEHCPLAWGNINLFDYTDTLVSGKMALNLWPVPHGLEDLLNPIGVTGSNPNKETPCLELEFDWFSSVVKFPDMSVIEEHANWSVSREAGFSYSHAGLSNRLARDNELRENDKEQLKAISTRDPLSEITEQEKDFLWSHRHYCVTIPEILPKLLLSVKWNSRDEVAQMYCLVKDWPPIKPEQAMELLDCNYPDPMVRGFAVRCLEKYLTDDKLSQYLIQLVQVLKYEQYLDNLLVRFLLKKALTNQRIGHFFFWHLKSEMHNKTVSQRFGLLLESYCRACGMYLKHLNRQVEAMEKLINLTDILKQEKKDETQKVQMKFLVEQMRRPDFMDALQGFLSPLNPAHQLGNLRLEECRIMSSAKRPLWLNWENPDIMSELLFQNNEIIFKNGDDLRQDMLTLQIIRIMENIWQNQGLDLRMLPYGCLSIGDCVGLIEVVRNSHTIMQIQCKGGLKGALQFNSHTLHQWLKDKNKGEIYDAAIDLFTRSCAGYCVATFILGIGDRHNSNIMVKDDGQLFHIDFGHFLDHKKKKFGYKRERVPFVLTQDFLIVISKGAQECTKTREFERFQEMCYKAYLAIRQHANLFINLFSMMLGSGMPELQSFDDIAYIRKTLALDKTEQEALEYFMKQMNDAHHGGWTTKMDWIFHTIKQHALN
T1 sequence (P27986 whole entry partner): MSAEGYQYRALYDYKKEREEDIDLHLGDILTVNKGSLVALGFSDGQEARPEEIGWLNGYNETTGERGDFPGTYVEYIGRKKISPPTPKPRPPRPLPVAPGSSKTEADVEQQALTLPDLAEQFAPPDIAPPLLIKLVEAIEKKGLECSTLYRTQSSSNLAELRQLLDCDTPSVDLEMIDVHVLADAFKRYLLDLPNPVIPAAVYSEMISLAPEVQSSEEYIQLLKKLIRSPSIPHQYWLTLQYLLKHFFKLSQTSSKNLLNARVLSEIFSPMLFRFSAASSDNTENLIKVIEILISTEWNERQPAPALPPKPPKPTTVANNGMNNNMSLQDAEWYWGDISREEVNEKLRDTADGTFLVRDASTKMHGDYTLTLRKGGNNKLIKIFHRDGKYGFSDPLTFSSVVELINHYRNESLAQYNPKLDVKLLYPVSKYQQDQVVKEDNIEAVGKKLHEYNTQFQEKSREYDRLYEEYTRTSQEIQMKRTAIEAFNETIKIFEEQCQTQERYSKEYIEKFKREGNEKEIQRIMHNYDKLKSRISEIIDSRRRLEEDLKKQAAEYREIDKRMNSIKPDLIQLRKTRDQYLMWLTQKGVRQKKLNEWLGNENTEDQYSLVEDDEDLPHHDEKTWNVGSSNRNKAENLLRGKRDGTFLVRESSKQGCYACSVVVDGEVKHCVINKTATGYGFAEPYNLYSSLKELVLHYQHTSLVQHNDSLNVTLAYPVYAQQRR
Procedure: The inhibition of PI3K kinase activity by the compound to be tested was determined by the following method. The working concentration of each component in the 25 μL enzyme reaction system was: p110α/p85α 3 ng (or p110β/p85α 60 ng, or p110δ/p85α 90 ng, or p110γ 100 ng), ATP 10 μM, PIP2: PS (Invitrogen PV5100) 30 μM and the DMSO concentration was 2% after addition of the compound to be tested.
The compound to be tested was gradiently diluted 3 times (0.00046-1 μM, 8 concentration points) with 10% DMSO. 5 μL of the compound to be tested was added to each well of a 96-well plate (Greiner 675076) in duplicate. […] 10 μL of ATP/PIP2: PS and 10 μL of the PI3K enzyme working solution were added to each well in a 96-well plate. The plate was shaken and mixed uniformly, and then incubated at 25° C. for 1 hour. […] After completion of the enzyme reaction, 25 μL of ADP assay solution (1% 100×ADP tracer, 0.79% ADP antibody and 10% 10× reaction stop solution) was added and incubated at 25° C. for 1 hour. Fluorescence polarization value [mP] of each well was measured with a Perkin Elmer Victor X5 Fluorescent Microplate. The ADP concentration [ADP] was calculated from the ADP/ATP standard curve and the IC50 values were calculated using the XLFit software.

[4] = Solubility experiment in 0.1M HCl, buffers and water; type: physicochemical; conditions: ambient temperature; for solubility at 30 min: thermodynamic from solid
Procedure: The solubilities of the following four kinds of salt and free base sample in 0.1M HCl, pH 4.5 buffer, pH 6.8 buffer, and water were tested at ambient temperature. In the test, the calibration curves of free base and four kinds of salt were plotted. 3 mg of solid samples of free base and four kinds of salt were weighed, respectively, and then 1 ml of the solvent was added, centrifuged after 30 min ultrasound. The supernatant was taken, and injected through the membrane, and the solubility was tested.

- Clearance [2]: 108.9 mL/min/kg
- increase of inhibitory activity against PI3K-α kinase versus BKM-120 [3]: about 10 times
- Solubility (mg/mL) 0.1M HCl ([4]; 0.1M HCl, listed as Free base): >2.973 mg/mL
- solubility at 30 min ([4]; pH 4.5 buffer, pH 4.5, aqueous buffer, pH 4.5 buffer, read-out: Solubility (mg/mL) pH 4.5): 0.025 mg/mL
- solubility at 30 min ([4]; pH 6.8 buffer, pH 6.8, aqueous buffer, pH 6.8 buffer, read-out: Solubility (mg/mL) pH 6.8): 0.015 mg/mL
- Solubility (mg/mL) H2O ([4]; water, listed as Free base): 0.016 mg/mL
SMILES: CS(=O)(=O)C1(c2cc(-c3cnc(N)cc3Cl)nc(N3CCOCC3)n2)CC1 [Compound of formula X, 4-chloro-5-(6-(1-(methylsulfonyl)cyclopropyl)-2-morpholinopyrimidin-4-yl)pyridin-2-amine]
- cytotoxicity in normal cell lines [1]: relatively low cytotoxicity
